Assay results taken from patent publication US9598441B2, “Therapeutic compounds and methods” (Wayne State University, priority 2011, dated 2017).
One block for each molecule: values may come before it. Residues, ends and D or L forms follow the SMILES beside them. *: point of attachment. Cbz = O=C(OCc1ccccc1)*; CH2F = FC*

Key:
[1] = system: CARP-1, cyclin B1, Cdc20, Cdh1, APC-2, CDKIs, caspases, p38, Bcl2 family proteins; assay: Western blot of protein levels in treated cells; type: cell-based; conditions: for effect of pre-treatment on CFM-4-dependent loss of cyclin B1 and Cdc20 proteins (WB): pre-treatment before CFM-4
Description: (§1) Logarithmically growing cells were either untreated or treated with different agents for various time periods. The cells were lysed to prepare protein extracts. IP was carried out by incubating approximately 1 mg of the protein lysate with appropriate antibodies, and the immunoprecipitates or cell lysates were then electrophoresed on 9-12% SDS-polyacrylamide gels, and transferred to nitrocellulose membranes. The membranes were subsequently probed with various antibodies to determine expression/presence of the corresponding proteins. The cell growth inhibition was assessed by using MTT assay. Briefly, MTT (3-[4,5-Dimethylthiazol-2-yl]-2,5diphenyltetrazolium bromide) was dissolved in sterile 1×PBS to prepare a stock solution of 5 mg/ml. The solution was subsequently filtered through 0.2 μm filter and stored at 2-8° C. 4−5×10^2 cells were seeded in 96-well plates. After 72 h incubation with or without different agents, MTT stock solution was added to each culture being assayed to equal one tenth the original culture volume, followed by incubation of cells at 37° C. for another 2 h. At the end of the incubation, the media was removed and cells were treated with 100-200 μl of DMSO to solubilize the dye. The assessment of the live cells was derived by measuring the absorbance of the converted dye at wavelength of 570 nm.

Gst-APC-2 (685-754) = biological target: T1, Gst-APC-2 (685-754) (Homo sapiens, UniProt Q9UJX6); assay: In vitro binding of SMIs, immobilized Gst-APC-2 pre-incubated with CFM; conditions: WB with anti HA-tag
T1 construct: immobilizing the Gst-APC-2 (685-754) peptide with Gst-beads; made in house; host or cells: E. coli BL-21 (DE3)
Description: (§2) The CFM-4 and 5 were separately dissolved in DMSO to obtain a stock of 20-50 mM. For in vitro binding experiments we utilized affinity-purified Gst-APC-2 (685-754) and His-TAT-HA-tagged A-epitope (WT) peptide. Ten nanogram of the His-TAT-HA-tagged A-epitope (WT) peptide was first allowed to bind with Ni-NTA beads (ProBond, InVitrogen), and then the reaction was incubated with DMSO (control), 100 μM CFM-4, or 100 μM CFM-5 for 30 min at RT. The reactions were then subjected to three washes with the binding buffer, followed by incubation with 10 ng of affinity-purified Gst-APC-2 (685-754) peptide for 30 min at RT. The reactions were washed again for three times with PBS, eluted and analyzed on a SDS-PAGE followed by western blotting (WB) with anti-Gst antibodies. A similar strategy was performed by immobilizing the Gst-APC-2 (685-754) peptide with Gst-beads. The beads were washed, incubated with DMSO or the CFMs, and the reactions washed again. The reactions were then allowed to incubate with affinity purified A-epitope peptide, and the complexes analyzed by SDS-PAGE followed by WB with anti HA-tag antibodies.

[2] = biological target: T2, His-TAT-HA-tagged A-epitope peptide [CARP-1 (951-980)] (Homo sapiens, UniProt Q8IX12); assay: In vitro binding of SMIs, immobilized A-epitope peptide pre-incubated with CFM; conditions: 100 μM, 30 min at RT; WB with anti-Gst
T2 construct: wild-type or scrambled His-TAT-HA-CARP-1 (951-980) peptides; made in house; host or cells: E. coli BL-21 (DE3)
T2 sequence (Q8IX12 951-980 limits assumed): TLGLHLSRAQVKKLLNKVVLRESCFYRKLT
Description: as §2

[3] = biological target: T3, CARP-1 binding with APC-2 (Homo sapiens, UniProt Q8IX12); assay: Fluorescence polarization assay (FPA) for inhibitors of CARP-1-APC-2 binding; conditions: fluorescein-tagged A-epitope peptide and Gst-APC-2 (685-754)
T3 construct: made in house; host or cells: E. coli BL-21 (DE3)
T3 sequence (Q8IX12 951-980 limits assumed): T2 sequence (Q8IX12 951-980 limits assumed)
Description: Although, several formats for FP are indicated in the published literature (Inglese, J., Johnson, R. L., Simeonov, A., Xia, M., Zheng, W., Austin, C. P., Auld, D. S. (2007) Nat. Chem. Biol. 3(8), 466-79), the assays using 96-well or higher density plates are often and routinely employed. Optimization of FP for HTS involves several steps including the determination of Kd values, optimization of the buffer conditions, incubation and measurement times, and determination of the DMSO tolerance of the assay. Our goal was to minimize variation and to aim for adequate signal:background without adversely effecting the sensitivity of the assay. The FP polarization values in milli-polarization (mp) were measured to determine changes in the mp (Amp=mp of bound peptide mp of free peptide), the Kd and Ki constants of the binding. A 30-mer CARP-1 peptide that contained APC-2-binding epitope (A-epitope peptide) was commercially synthesized (US Biologicals, MA), labeled with fluorescein at the N-terminus, and purified to >98% purity. Increasing concentrations of A-epitope peptide were incubated with the indicated quantities of the affinity-purified Gst-APC-2 (685-754) protein in assay buffer containing 0.01% triton-X100. Affinity-purified Gst-NEMO (221-317) was included as a negative control. The Δmp was measured by excitation at 485 nm and emission at 538 nm.
The kinetics of CARP-1 binding with APC-2 was determined, and whether this binding could be exploited to identify SMIs of CARP-1-APC-2 interaction was investigated. For this purpose, a FPA utilizing the affinity-purified Gst-APC-2 (685-754) protein and the fluorescein-tagged A-epitope peptide was developed as detailed in methods. […] The signal to background ratio of 6 underscored robustness of this assay. Since, the quality (precision) and suitability of the FPA for HTS is usually defined by the Z′ factor (25, 40), we utilized the positive and negative control mean signals (μc+ and μc−, respectively) and their standard deviations (σc+ and σc−) to calculate the Z′ factor using the equation Z′=1−[3(σc++σc−)/(μc+−μc−)]. […]

[4] = system: caspase-3, caspase-8, caspase-9, caspase-2; assay: ApoAlert Caspase profiling plate, fluorescence-based; type: cell-based; conditions: pre-treatment before CFM-4
Description: For apoptosis ELISA assay, 4−5×10^2 cells were seeded in 96-well plates and treated essentially as indicated in the MTT assay above. Untreated as well as treated cells were lysed, and levels of mono and oligo-nucleosomal DNA fragments in the lysates were determined by measuring optical density of each sample at 405 nm and 495 nm wavelengths. […] For TUNEL labeling, the cells were treated with various agents, fixed, labeled and photographed essentially as detailed in immuno-localization protocols described before (Zhang, L., Levi, E., Majumder, P., Yu, Y., Aboukameel, A., Du, J., Xu, H., Mohammad, R. M., Hatfield, J. S., Wali, A., Adsay, V., Majumdar, A. P. N., and Rishi, A. K. (2007) Mol. Cancer. Ther. 6(5), 1661-1672). […] Cell lysates derived from vehicle DMSO (Control) or CFM-4-treated cells were added to the wells that had immobilized fluorogenic caspase-3, caspase-8, caspase-9, or caspase-2 substrates. The fluorescence released from the activated caspase-dependent cleavage of respective substrate was detected by a plate reader at the excitation and emission wavelengths of 380 nm and 460 nm, respectively.

[5] = system: HBC, colon, prostate, pancreatic cancer, MPM and lymphoma cells; assay: MTT cell viability assay, cancer cells; type: cell-based, human; conditions: combination with CFM-4
Description: as §1
To test whether CFMs that interfere with CARP-1 binding with APC-2 modulate cell growth, HBC, colon, prostate, pancreatic cancer, MPM and lymphoma cells, as well as the immortalized, mammary epithelial MCF-10A cells were utilized. The cells were either treated with vehicle (DMSO) or various doses of the respective compound for a period of 72 h, and percent of live/viable cells for each compound was determined relative to the untreated controls as described in Methods.

T1 sequence (Q9UJX6 685-754): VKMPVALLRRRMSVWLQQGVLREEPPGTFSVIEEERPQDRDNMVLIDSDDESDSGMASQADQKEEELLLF

SMILES: CC[C@H](C)[C@H](NC(=O)[C@H](CCC(=O)O)NC(=O)[C@@H](NC(C)=O)C(C)C)C(=O)N[C@H](C=O)CC(=O)O [Ac-VEOD-CHO, reference compound] (Ac-VEID-aldehyde)
effect of pre-treatment on CFM-4-dependent loss of cyclin B1 and Cdc20 proteins (WB) [1]: blocked CFM-4-dependent loss

binding of immobilized Gst-APC-2 (685-754) with A-epitope peptide after pre-incubation with compound (Gst-APC-2 (685-754)): failed to abolish its binding
binding of immobilized A-epitope peptide with Gst-APC-2 (685-754) after pre-incubation with compound [2]: abrogated its binding
IC50 [3]: 1.4 µM
SMILES: O=C1N(CCc2ccccc2)c2ccc(Br)cc2C12NN=C(c1ccccc1)S2 (stereo not shown) [CFM-5, 5-bromo-1-phenethyl-5′-phenyl-3′H-spiro[indoline-3,2′-[1,3,4]thiadiazol]-2-one]

SMILES: CC(C)C[C@H](NC(=O)[C@H](Cc1ccccc1)NC(=O)c1cnccn1)B(O)O [velcade, Bortezomib, reference compound]
CARP-1 levels (WB) ([1]; 50 nM velcade 6 h or 24 h, 20 μM CFM-4 24 h): modest increase in CARP-1 levels
effect on CFM-4-dependent loss of cyclin B1 or Cdc20 proteins (WB) ([1]; 50 nM velcade combined with 20 μM CFM-4): failed to interfere

SMILES: CC[C@H](C)[C@H](NC(=O)OCc1ccccc1)C(=O)N[C@@H](CCC(=O)OC)C(=O)N[C@H](C(=O)N[C@@H](CC(=O)OC)C(=O)CF)[C@@H](C)O [z-IETD-fmk] (Cbz-IE(OMe)TD(OMe)-CH2F)
effect of pre-treatment on CFM-4-dependent activation of caspase 8 or caspase 9 [4]: abolished activation

SMILES: COC(=O)CC[C@H](NC(=O)[C@H](CC(C)C)NC(=O)OCc1ccccc1)C(=O)N[C@@H](Cc1cnc[nH]1)C(=O)N[C@@H](CC(=O)OC)C(=O)CF [z-LEHD-fmk] (Cbz-LE(OMe)HD(OMe)-CH2F)
effect of pre-treatment on CFM-4-dependent activation of caspase 8 or caspase 9 [4]: abolished activation

SMILES: COC(=O)C[C@H](NC(=O)[C@H](C)NC(=O)[C@@H](NC(=O)OCc1ccccc1)C(C)C)C(=O)CF [zVAD-fMK, z-VAD-fmk, reference compound] (Cbz-Val-Ala-Asp(OMe)-CH2F)
effect on cell growth suppression by CFM-4 (MTT) [5]: blocked the ability of CFM-4 to suppress cell growth
effect of pre-treatment on CFM-4-dependent loss of cyclin B1 and Cdc20 proteins (WB) [1]: blocked CFM-4-dependent loss
